Measured values as given in ChEMBL document CHEMBL1150934, “Cyclic polyketide peroxides and acyclic diol analogues from the sponge Plakortis lita” (J Nat Prod, 1998).
Activity calls are given as the source filed them. The calls are words filed in the database; no cut-off is given here.

Test system: PO3
Experiment: Antitumor activity in mouse PO3 cells xenografted mouse at 304.5 mg/kg after 31 days
Type: functional, organism-based
Set-up: dose 304.5 mg/kg

In the case of `CC/C=C/[C@]1(CC)C[C@@H](CC)[C@H](CC(=O)OCC)OO1`, the Activity is reported as “inactive”.
